The conditions of data set [1]: cited from earlier work.
The nature of data set [2]: Polarity of lipids and oils: interfacial tension towards water. The format is physicochemical.
Description: It has already been proposed to adopt interfacial tension towards water as a measure of the polarity index of an oil or of an oil phase. This means that the greater the polarity of the oil phase in question, the lower the interfacial tension between this oil phase and water. According to the invention, the interfacial tension is regarded as being one possible measure of the polarity of a given oil component.

The source of these data is patent US11497942B2, “Cosmetic or dermatological preparation comprising a combination of a dye and an anti-inflammatory active ingredient” (BEIERSDORF AG, priority 2003, dated 2022).

Regarding `C=CC(C)(C)c1cc(/C=C/C(=O)c2ccc(O)cc2)c(OC)cc1O` [licochalcone A], the solubility entry in data set [1] was “sparingly soluble”. In turn, `CCCCCCCC(=O)OC(=O)OC(=O)CCCCCCC` [Cetiol CC, Dicaprylyl Carbonate] registered a Polarity in data set [2] (nonpolar lipids) of 31.7 mN/m. Regarding Cyclomethicone [DC Fluid 345], the Polarity in data set [2] (mid-polar lipids) and in data set [2] (silicone oils) was 28.5 mN/m throughout. The compound “Cyclopolydimethylsiloxan [Dow Corning Fluid 244]” gave a Polarity in data set [2] (mid-polar lipids) of 28.5 mN/m. The same measure, in the same setting: the same measure for “Phenyltrimethicone [Silicone oil VP 1120]”: 22.7 mN/m.
